Reference: DBAASP
Converted amounts (≈) assume the structure as drawn.

Experiments:
Test in all cases: ≥ marks a high value that may be exact or a test limit, other limits are often not marked, values filed in µg/mL are converted to µM
[1] = system: Pseudomonas aeruginosa ATCC 9027
[2] = system: Staphylococcus aureus ATCC 6538
[3] = system: Staphylococcus aureus ATCC 25923
Klebsiella pneumoniae = system: Klebsiella pneumoniae
[4] = system: Escherichia coli ATCC 25922
[5] = system: Pseudomonas aeruginosa ATCC 27853
[6] = system: Salmonella enterica subsp. enterica serovar Typhimurium ATCC 14028
[7] = system: Pseudomonas aeruginosa PAO1
[8] = system: Staphylococcus aureus USA 300
[9] = system: Candida albicans ATCC 90028
[10] = system: Staphylococcus aureus ATCC 29213
[11] = system: Candida albicans ATCC 2002
Bacillus subtilis = system: Bacillus subtilis
[12] = system: Enterococcus faecalis ATCC 29212

MIC [4] [µM] | Compound | MIC [1] [µM] | MIC [2] [µM] | other results
– | CC(C)C[C@H](NC(=O)[C@H](CCCCN)NC(=O)[C@H](CCCCN)NC(=O)[C@H](CC(C)C)NC(=O)[C@H](C)NC(=O)[C@H](CCCCN)NC(=O)[C@H](CC(C)C)NC(=O)[C@H](C)NC(=O)[C@H](CCCCN)NC(=O)[C@H](CCCCN)NC(=O)[C@H](C)NC(=O)[C@@H](N)Cc1ccccc1)C(N)=O [FAKKALKALKKL] | 73.6 (≈ 99.9 µg/mL) | 147 (≈ 200 µg/mL) | –
– | CC(C)C[C@H](NC(=O)[C@H](CC(C)C)NC(=O)[C@H](C)NC(=O)[C@H](CCCCN)NC(=O)[C@H](C)NC(=O)[C@H](CC(C)C)NC(=O)[C@H](CCCCN)NC(=O)[C@H](CCCCN)NC(=O)[C@H](C)NC(=O)[C@@H](N)Cc1ccccc1)C(N)=O [FAKKLAKALL] | 90.7 (≈ 99.9 µg/mL) | 90.7 (≈ 99.9 µg/mL) | –
– | CC(C)C[C@H](NC(=O)[C@H](CCCCN)NC(=O)[C@H](C)NC(=O)[C@H](CC(C)C)NC(=O)[C@H](CCCCN)NC(=O)[C@H](CC(C)C)NC(=O)[C@H](C)NC(=O)[C@H](CC(C)C)NC(=O)[C@H](CCCCN)NC(=O)[C@H](C)NC(=O)[C@H](CC(C)C)NC(=O)[C@H](CCCCN)NC(=O)[C@H](CCCCN)NC(=O)[C@H](C)NC(=O)[C@@H](N)Cc1ccccc1)C(N)=O [FAKKLAKLALKLAKL] | 3.02 (≈ 5 µg/mL) | 3.02 (≈ 5 µg/mL) | –
– | CC(C)C[C@H](NC(=O)[C@H](C)NC(=O)[C@H](CCCCN)NC(=O)[C@H](CCCCN)NC(=O)[C@H](C)NC(=O)[C@H](CC(C)C)NC(=O)[C@H](CCCCN)NC(=O)[C@H](C)NC(=O)[C@H](CC(C)C)NC(=O)[C@H](CC(C)C)NC(=O)[C@H](CCCCN)NC(=O)[C@H](C)NC(=O)[C@@H](N)Cc1ccccc1)C(N)=O [FAKLLAKLAKKAL] | 35.3 (≈ 50 µg/mL) | 3.53 (≈ 5 µg/mL) | –
– | CC(C)C[C@H](NC(=O)[C@H](CCCCN)NC(=O)[C@H](CC(C)C)NC(=O)[C@H](CCCCN)NC(=O)[C@H](CC(C)C)NC(=O)[C@H](C)NC(=O)[C@H](CC(C)C)NC(=O)[C@H](C)NC(=O)[C@H](CC(C)C)NC(=O)[C@H](CC(C)C)NC(=O)[C@H](CCCCN)NC(=O)[C@H](C)NC(=O)[C@@H](N)Cc1ccccc1)C(N)=O [FAKLLALALKLKL] | > 139 | 6.94 (≈ 9.99 µg/mL) | –
– | CC(C)C[C@H](NC(=O)[C@H](C)NC(=O)[C@H](CCCCN)NC(=O)[C@H](CCCCN)NC(=O)[C@H](CC(C)C)NC(=O)[C@H](C)NC(=O)[C@H](CCCCN)NC(=O)[C@H](CCCCN)NC(=O)[C@H](CC(C)C)NC(=O)[C@H](CCCCN)NC(=O)[C@H](CCCCN)NC(=O)[C@H](CC(C)C)NC(=O)[C@H](C)NC(=O)[C@H](CCCCN)NC(=O)[C@H](CCCCN)NC(=O)[C@H](CC(C)C)NC(=O)[C@H](C)NC(=O)[C@H](CCCCN)NC(=O)[C@H](CC(C)C)NC(=O)[C@H](C)NC(=O)[C@H](CC(C)C)NC(=O)[C@H](C)NC(=O)[C@@H](N)Cc1ccccc1)C(N)=O [FALALKALKKALKKLKKALKKAL] | 39.4 (≈ 100 µg/mL) | 9.85 (≈ 25 µg/mL) | –
0.707 (≈ 1.61 µg/mL) | CC[C@H](C)[C@H](NC(=O)CN)C(=O)NCC(=O)N[C@@H](CCCCN)C(=O)N[C@@H](Cc1cnc[nH]1)C(=O)N[C@H](C(=O)NCC(=O)N[C@@H](CCCCN)C(=O)N[C@@H](C)C(=O)N[C@@H](CC(C)C)C(=O)N[C@@H](CCCCN)C(=O)NCC(=O)N[C@@H](CC(C)C)C(=O)N[C@@H](CCCCN)C(=O)NCC(=O)N[C@@H](CC(C)C)C(=O)N[C@@H](CC(C)C)C(=O)N[C@@H](CCCCN)C(=O)NCC(=O)N[C@@H](CC(C)C)C(=O)NCC(=O)N[C@@H](CCC(=O)O)C(=O)N[C@@H](CS)C(=O)O)C(C)C [GIGKHVGKALKGLKGLLKGLGEC] | – | – | MIC [3]: ≥ 128 µM; MIC (Klebsiella pneumoniae): 1 µM (≈ 2.28 µg/mL); MIC [5]: 2 µM (≈ 4.55 µg/mL); MIC [6]: 1 µM (≈ 2.28 µg/mL)
> 25 | CC(C)C[C@H](NC(=O)[C@H](CC(C)C)NC(=O)[C@H](CCCCN)NC(=O)CNC(=O)[C@H](C)NC(=O)[C@H](C)NC(=O)[C@H](CCCCN)NC(=O)[C@H](C)NC(=O)[C@H](C)NC(=O)[C@H](CO)NC(=O)[C@H](CC(C)C)NC(=O)[C@H](CC(C)C)NC(=O)CN)C(N)=O [GLLSAAKAAGKLL] | – | – | MIC [7]: > 25 µM; MIC [8]: 25 µM (≈ 30.3 µg/mL)
25 (≈ 30.6 µg/mL) | CC(C)C[C@H](NC(=O)[C@H](CC(C)C)NC(=O)[C@H](CCCCN)NC(=O)CNC(=O)[C@H](CC(C)C)NC(=O)[C@H](CC(C)C)NC(=O)[C@H](CO)NC(=O)[C@H](CC(C)C)NC(=O)[C@H](CO)NC(=O)[C@H](CC(C)C)NC(=O)[C@H](CC(C)C)NC(=O)CN)C(N)=O [GLLSLSLLGKLL] | – | – | MIC [7]: > 25 µM; MIC [8]: 12.5 µM (≈ 15.3 µg/mL)
40 (≈ 59.5 µg/mL) | CC[C@H](C)[C@H](NC(=O)[C@H](C)NC(=O)[C@@H](N)CCCCN)C(=O)N[C@H](C(=O)N[C@@H](CCC(N)=O)C(=O)N[C@@H](CCCN=C(N)N)C(=O)N[C@H](C(=O)N[C@@H](CCCCN)C(=O)N[C@@H](CC(=O)O)C(=O)N[C@@H](Cc1ccccc1)C(=O)N[C@@H](CC(C)C)C(=O)N[C@@H](CCCN=C(N)N)C(=O)O)[C@@H](C)CC)C(C)C [KAIVQRIKDFLR] | – | – | MIC [9]: ≥ 40 µM; MIC [10]: 40 µM (≈ 59.5 µg/mL); MIC [5]: 40 µM (≈ 59.5 µg/mL)
40 (≈ 61.2 µg/mL) | CC[C@H](C)[C@H](NC(=O)[C@H](CCCN=C(N)N)NC(=O)[C@@H](N)CCCCN)C(=O)N[C@H](C(=O)N[C@@H](CCC(N)=O)C(=O)N[C@@H](CCCN=C(N)N)C(=O)N[C@@H](C)C(=O)N[C@@H](CCCCN)C(=O)N[C@@H](CC(=O)O)C(=O)N[C@@H](Cc1ccccc1)C(=O)N[C@@H](CC(C)C)C(=O)N[C@@H](CCCN=C(N)N)C(=O)O)C(C)C [KRIVQRAKDFLR] | – | – | MIC [9]: ≥ 40 µM; MIC [10]: 40 µM (≈ 61.2 µg/mL); MIC [5]: 40 µM (≈ 61.2 µg/mL)
0.803 (≈ 2.34 µg/mL) | CC[C@H](C)[C@H](NC(=O)[C@H](C)NC(=O)[C@H](CCCN=C(N)N)NC(=O)[C@H](Cc1ccc(O)cc1)NC(=O)[C@H](CC(C)C)NC(=O)[C@H](CC(N)=O)NC(=O)[C@H](Cc1ccc(O)cc1)NC(=O)CNC(=O)[C@H](C)NC(=O)[C@@H](NC(=O)[C@@H](NC(=O)[C@@H](NC(=O)[C@H](CCCN=C(N)N)NC(=O)[C@@H](NC(=O)[C@@H](NC(=O)[C@@H](NC(=O)[C@@H]1CCCN1C(=O)[C@H](Cc1c[nH]c2ccccc12)NC(=O)[C@H](Cc1ccccc1)NC(=O)[C@H](CCCN=C(N)N)NC(=O)[C@H](CCCCN)NC(=O)[C@@H](NC(=O)[C@@H](N)CCCN=C(N)N)[C@@H](C)CC)C(C)C)C(C)C)[C@@H](C)CC)[C@@H](C)O)C(C)C)C(C)C)C(=O)N[C@@H](CCCCN)C(=O)O [RIKRFWPVVIRTVVAGYNLYRAIK] | – | – | MIC [3]: 2.41 µM (≈ 7.03 µg/mL); MIC [11]: 0.201 µM (≈ 0.586 µg/mL); MIC (Bacillus subtilis): 1.61 µM (≈ 4.69 µg/mL)
– | CC(C)C[C@H](NC(=O)[C@H](C)NC(=O)[C@H](CC(C)C)NC(=O)[C@H](CCCCN)NC(=O)[C@H](C)NC(=O)[C@H](CC(C)C)NC(=O)[C@H](CCCCN)NC(=O)[C@H](CCCCN)NC(=O)[C@H](C)NC(=O)[C@H](CC(C)C)NC(=O)[C@H](CCCCN)NC(=O)[C@H](C)NC(=O)[C@H](CC(C)C)NC(=O)[C@H](CCCCN)NC(=O)[C@H](CCCCN)NC(=O)[C@H](C)NC(=O)[C@@H](N)C(C)C)C(N)=O [VAKKLAKLAKKLAKLAL] | 8.3 (≈ 15 µg/mL) | 2.77 (≈ 5 µg/mL) | –
0.746 (≈ 1.2 µg/mL) | CC[C@H](C)[C@H](NC(=O)[C@H](CCCCN)NC(=O)[C@H](CCCCN)NC(=O)[C@H](Cc1ccccc1)NC(=O)[C@H](CC(C)C)NC(=O)[C@H](CCCCN)NC(=O)[C@H](CCCCN)NC(=O)[C@@H](N)Cc1c[nH]c2ccccc12)C(=O)N[C@@H](CC(C)C)C(=O)N[C@@H](CCCCN)C(=O)N[C@@H](Cc1ccc(O)cc1)C(=O)N[C@@H](CC(C)C)C(N)=O [WKKLFKKILKYL] | – | – | MIC [10]: 1.49 µM (≈ 2.4 µg/mL); MIC [5]: 2.11 µM (≈ 3.39 µg/mL); MIC [12]: 2.98 µM (≈ 4.8 µg/mL)
